Legend:
motor co-ordination = test: accelerating rotarod (motor co-ordination) with observed behaviour; assay type: in vivo, male Sprague Dawley rats; conditions: for ID50 Motor Impairment Rat Rotarod: male, Sprague Dawley, in vivo, ip, 1 h
Method: (§1) The present Example examined whether NMDA NR2B receptor antagonists have an improved therapeutic window over unselective NNIDA/glycine antagonists and other ion channel blockers including lamotrigine and gabapentin, by comparing their anti-algesic effects with their liability to induce motor impairment in rats. Anti-algesic activity was assessed using an assay of neuropathic pain in rats (sciatic nerve ligation) and in a carrageenan-induced hyperalgesia assay. Motor impairment was measured using an accelerating rotarod.
(§2) For sciatic nerve ligation, male Sprague Dawley rats (180-220g) were anaesthetised with isofluorane, the left sciatic nerve exposed and 4 chromic catgut (4.0) ligatures were tied loosely around the nerve (spaced 1-2 mm apart) immediately proximal to the point of trifurcation. In shamoperated animals, the same dissection was performed but without ligation. Responses to mechanical pressure were assessed 7 days after ligation using a modified Randall-Selitto algesiometer in which constant force of […] was applied to the hind paw and the latency to struggle was recorded as the reaction time. Mechanical allodynia was defined as the difference in reaction time for sham and ligature rats. Reaction times for drug treated rats were expressed as a percentage of this response. Compounds were administered 1 h before the test. In the carrageenan-induced hyperalgesia assay, male Sprague Dawley rats (100-120 g) received an intraplantar injection of carrageenan (4.5 mg) and mechanical thresholds were determined 3 h later using a modified Ugo Basile Algesiometer. Control rats received saline (0.15 ml i.pl.). Hyperalgesia was defined as the difference in vocalisation threshold for saline- and carrageenan-injected rats. Paw pressure scores for drug-treated rats were expressed as a percentage of this response. Compounds were administered 2 h after carrageenan. To determine the effects of the compounds on motor co-ordination, male Sprague Dawley rats (160-180 g) were first trained to remain for 120 s on the rotarod apparatus revolving at 12 r.p.m. on the morning before the test. Animals then received drug treatments and 1 h later were placed on an accelerating rotarod (increasing from 4 - 40 r.p.m. during a 5 min period) and the time the rats were able to remain on the rotarod recorded. Lamotrigine, gabapentin and (±)-CP-101,606 were suspended in 0.5% methocel and administered orally (1 ml/kg). Ifenprodil, L-701,324, L-687,414 and (±)-Ro25-6981 were dissolved or suspended in 0.5% methocel and administered intraperitoneally (1 ml/kg). MK-801 was dissolved in distilled water and given i.p. (1 ml/kg). Doses of compounds refer to the free base.
To determine the effects of morphine and (±)-Ro25-6981 on motor co-ordination, male Sprague Dawley rats (160-180 g) were first trained to remain for 120 s on the rotarod apparatus revolving at. 12 r.p.m. on the morning before the test. Animals then received drug treatments and 1 h later were placed on an accelerating rotarod (increasing from 4 - 40 r.p.m. during a 5 min period) and the time the rats were able to remain on the rotarod recorded.

[1] = system: mechanical allodynia induced by sciatic nerve ligation; test: sciatic nerve ligation assay of neuropathic pain (mechanical allodynia, modified Randall-Selitto algesiometer); assay type: in vivo, male Sprague Dawley rats; conditions: result in words; given 1 h before the test
Method: as §1, §2

[2] = system: mechanical hyperalgesia induced by carrageenan; test: carrageenan-induced hyperalgesia assay (mechanical thresholds, modified Ugo Basile Algesiometer); assay type: in vivo, male Sprague Dawley rats; conditions: for inhibition of hyperalgesia: alone, Figure 2
Method: as §1
For sciatic nerve ligation, male Sprague Dawley rats (180-220g) were anaesthetised with isofluorane, the left sciatic nerve exposed and 4 chromic catgut (4.0) ligatures were tied loosely around the nerve (spaced 1-2 mm apart) immediately proximal to the point of trifurcation. In shamoperated animals, the same dissection was performed but without ligation. Responses to mechanical pressure were assessed 7 days after ligation using a modified Randall-Selitto algesiometer in which constant force of […] was applied to the hind paw and the latency to struggle was recorded as the reaction time. […] Reaction times for drug treated rats were expressed as a percentage of this response. […] In the carrageenan-induced hyperalgesia assay, male Sprague Dawley rats (100-120 g) received an intraplantar injection of carrageenan (4.5 mg) and mechanical thresholds were determined 3 h later using a modified Ugo Basile Algesiometer. […] Paw pressure scores for drug-treated rats were expressed as a percentage of this response. […] Animals then received drug treatments and 1 h later were placed on an accelerating rotarod (increasing from 4 - 40 r.p.m. during a 5 min period) and the time the rats were able to remain on the rotarod recorded. […]
Mate Sprague Dawley rats (100-120 g) received an intraplantar injection of carrageenan (4.5 mg) and mechanical thresholds were determined 3 h later using a modified Ugo Basile Algesiometer. […] Paw pressure scores for drug-treated rats were expressed as a percentage of this response. […]

[3] = at doses showing no behavioural abnormality; cited from earlier work

C[C@@H](CN1CCC(Cc2ccccc2)CC1)[C@@H](O)c1ccc(O)cc1 (racemic) [(±)-Ro25-6981]
ID50 Motor Impairment Rat Rotarod (motor co-ordination): ≥100 mg/kg
reversal of mechanical allodynia induced by sciatic nerve ligation [1]: dose-dependently reversed mechanical allodynia
reversal of mechanical hyperalgesia induced by carrageenan ([2]; 10 and 30 mg/kg i.p., Figure 1): dose-dependent reversal of mechanical hyperalgesia

NCC1(CC(=O)O)CCCCC1 [Gabapentin]
motor impairments observed (motor co-ordination; doses of 30-300 mg/kg): motor impairments (ataxia)
reversal of mechanical allodynia induced by sciatic nerve ligation [1]: reversed mchanical allodynia

CC(C(O)c1ccc(O)cc1)N1CCC(Cc2ccccc2)CC1 (centres unmarked) [Ifenprodil]
ID50 Motor Impairment Rat Rotarod (motor co-ordination): ≥50 mg/kg
reversal of mechanical allodynia induced by sciatic nerve ligation [1]: reversed mchanical allodynia

C[C@@H]1CN(O)C(=O)[C@@H]1N [L-687,414]
reversal of mechanical allodynia induced by sciatic nerve ligation [1]: dose-dependently reversed mechanical allodynia

O=c1[nH]c2cc(Cl)ccc2c(O)c1-c1cccc(Oc2ccccc2)c1 [L-701,324]
behavioural effects observed (motor co-ordination; 10 and 30 mg/kg i.p.): ataxia
reversal of mechanical allodynia induced by sciatic nerve ligation [1]: dose-dependently reversed mechanical allodynia

CS(=O)(=O)Nc1cc2c(cc1Sc1ccc(F)cc1F)C(=O)CC2 [L-745,337]
inhibition of hyperalgesia ([2]; 3 mg/kg p.o.): 75%
inhibition of hyperalgesia ([2]; 0.3-3 mg/kg p.o., result in words): dose-dependent inhibition of hyperalgesia

Nc1nnc(-c2cccc(Cl)c2Cl)c(N)n1 [Lamotrigine]
reversal of mechanical allodynia induced by sciatic nerve ligation [1]: reversed mchanical allodynia

C[C@]12N[C@H](Cc3ccccc31)c1ccccc12 [MK-801]
behavioural effects observed (motor co-ordination; 0.3 and 1 mg/kg doses (i.p.)): Body rolling, and head weaving
reversal of mechanical allodynia induced by sciatic nerve ligation [1]: dose-dependently reversed mechanical allodynia

(±)-CP-101,606
reversal of mechanical allodynia induced by sciatic nerve ligation [1]: dose-dependently reversed mechanical allodynia
analgesic activity [3]: Potent analgesic activity
